{"source": "patent US6723343B2", "about": "“Pharmaceutical tramadol salts” (Gruenenthal GmbH, priority 1999, dated 2004)", "settings": "deionized water, 25° C., stirred for 20 hours, HPLC against tramadol hydrochloride as standard", "description": "The solubility of the salts of tramadol and a sugar substitute was determined as follows:\nThe requisite amount of the salt of tramadol and the appropriate sugar substitute can optionally be determined by preliminary experiments.\nAfter the undissolved salt of tramadol and the appropriate sugar substitute had been allowed to settle out, the clear supernatant was pipetted off and centrifuged for 5 minutes at a speed of at least 3000 rpm. Part of the resulting clear supernatant is transferred to an HPLC sample vial and the concentration of the salt of tramadol and the appropriate sugar substitute is determined against tramadol hydrochloride as standard."}
{"smiles": "COc1cccc(C2(O)CCCCC2CN(C)C)c1.O=C1NS(=O)(=O)c2ccccc21", "note": "(stereo not shown) [tramadol saccharinate]", "values": [{"measurement": "solubility in water", "value": 22.5, "unit": "mg/mL"}]}
